Data on 5 molecules can be found in DBAASP.

What all share (test): ≥ marks a high value that may be exact or a test limit, other limits are often not marked, values filed in µg/mL are converted to µM
In assay [1] the test system is Bacillus cereus.
Assay [2] deals with Escherichia coli NCTC 10418.
For assay [3], the system named is Escherichia coli.
Assay [4] has as its system Lactococcus lactis.
Assay [5] relates to Staphylococcus aureus ATCC 6538.
In assay [6] the test system is Staphylococcus aureus.
The subject of assay [7] is Acholeplasma laidlawii A-PG8.
The subject of assay [8] is Bacillus megaterium KM.
Assay [9] relates to Escherichia coli K-12.
Assay [10] relates to Micrococcus luteus A270.
The subject of assay [11] is Pseudomonas aeruginosa ATCC 27853.
Assay [12] has as its system Salmonella typhimurium CIP 6062.
Assay [13] has as its system Sinorhizobium meliloti 102F34.
Assay [14] has as its system Spiroplasma melliferum BC3.
For assay [15], the system named is Staphylococcus aureus ATCC 25923.
Assay [16] relates to Bacillus megaterium.
The test system of assay [17] is Bacillus sp. ATCC 14412.
For assay [18], the system named is Candida albicans A39.
For assay [19], the system named is Candida glabrata.
The subject of assay [20] is Candida krusei.
Assay [21] concerns Cryptococcus neoformans Steroform A.
Assay [22] deals with Cryptococcus neoformans Steroform B.
In assay [23] the test system is Cryptococcus neoformans Steroform C.
Assay [24] concerns Cryptococcus neoformans Steroform D.
Assay [25] concerns Micrococcus luteus.
For assay [26], the system named is Staphylococcus haemolyticus.
Assay [27] concerns Yarrowia lipolytica.
For assay [28], the system named is Clavibacter michiganensis subsp. michiganensis DSM 46294.
For assay [29], the system named is Pectobacterium carotovorum subsp. carotovorum DSM 30168.
The test system of assay [30] is Pseudomonas corrugata DSM 7228.
Assay [31] concerns Pseudomonas syringae pv. syringae DSM 10604.
Assay [32] has as its system Pseudomonas syringae pv. tomato DC3000.
In assay [33] the test system is Staphylococcus aureus 90857.
The test system of assay [34] is Xanthomonas vesicatoria DSM 50861.
For assay [35], the system named is Enterococcus faecalis ATCC 29212.
The test system of assay [36] is Enterococcus faecalis NCTC 12203.
Assay [37] concerns Escherichia coli ATCC 25922.
Assay [38] concerns Escherichia coli UB1005.
Assay [39] has as its system Staphylococcus aureus ATCC 29213.
Assay [40] deals with Staphylococcus aureus MR.
The test system of assay [41] is Staphylococcus epidermidis.

Values after ≈ are worked out from the molar mass of the structure shown.

For `CC[C@H](C)[C@H](NC(=O)[C@H](CCCCN)NC(=O)[C@H](CCCCN)NC(=O)[C@H](CC(C)C)NC(=O)[C@H](CC(=O)O)NC(=O)[C@@H](NC(=O)[C@@H](N)Cc1ccccc1)C(C)C)C(=O)N[C@@H](C)C(=O)N[C@@H](CC(N)=O)C(=O)N[C@H](C(=O)N[C@H](C(=O)N[C@@H](CC(N)=O)C(=O)N[C@@H](CO)C(=O)N[C@H](C(=O)N[C@@H](Cc1ccccc1)C(N)=O)[C@@H](C)CC)[C@@H](C)CC)[C@@H](C)CC` [FVDLKKIANIINSIF], the MIC was 14.4 µM (≈ 25 µg/mL) in [1]; at least 100 µM in assay [2]; over 100 µM in assay [3]; 14.4 µM (≈ 25 µg/mL) in assay [4]; 3.1 µM (≈ 5.38 µg/mL) in [5]; 14.4 µM (≈ 25 µg/mL) in [6].
In the case of `CC[C@H](C)[C@H](NC(=O)CNC(=O)[C@H](CO)NC(=O)[C@H](C)NC(=O)[C@@H](NC(=O)[C@H](CCCCN)NC(=O)[C@H](CO)NC(=O)[C@H](CCSC)NC(=O)[C@H](Cc1c[nH]c2ccccc12)NC(=O)CN)[C@@H](C)CC)C(=O)NCC(=O)N[C@H](C(=O)N[C@@H](Cc1ccccc1)C(=O)N[C@@H](CC(C)C)C(=O)N[C@@H](CO)C(=O)NCC(=O)N[C@@H](CCSC)C(=O)N[C@@H](CCC(N)=O)C(=O)N[C@@H](CCC(N)=O)C(N)=O)[C@@H](C)O` [GWMSKIASGIGTFLSGMQQ], the minimum inhibitory concentration (MIC) is 12.5 µM (≈ 25 µg/mL) in assay [7]; 3.12 µM (≈ 6.23 µg/mL) in assay [8]; 10 µM (≈ 20 µg/mL) in assay [9]; 3 µM (≈ 6 µg/mL) in assay [10]; over 100 µM in [11]; at least 100 µM in [12]. Also, the minimum inhibitory concentration (MIC) was 12.5 µM (≈ 25 µg/mL) in [13], at least 50 µM in assay [14] and over 100 µM in [15].
As for `CC[C@H](C)[C@H](NC(=O)[C@H](Cc1ccccc1)NC(=O)[C@@H](NC(=O)[C@@H]1CCCN1C(=O)[C@H](CCCN=C(N)N)NC(=O)[C@H](CO)NC(=O)[C@@H]1CCCN1C(=O)[C@H](CCCCN)NC(=O)[C@H](CCCN=C(N)N)NC(=O)[C@H](CC(C)C)NC(=O)[C@@H]1CCCN1C(=O)[C@H](CCCN=C(N)N)NC(=O)[C@@H](NC(=O)[C@H](Cc1ccc(O)cc1)NC(=O)CNC(=O)[C@H](CO)NC(=O)[C@H](CO)NC(=O)[C@@H](N)Cc1cnc[nH]1)[C@@H](C)O)[C@@H](C)CC)C(=O)N[C@@H](CCCN=C(N)N)C(=O)N1CCC[C@H]1C(=O)N[C@H](C(=O)NCC(N)=O)[C@@H](C)CC` [HSSGYTRPLRKPSRPIFIRPIG], the MIC in [1] is at least 50 µM; in [16] it was at least 50 µM; in [17], 4.42 µM (≈ 11.2 µg/mL); in [18], 17.7 µM (≈ 44.8 µg/mL); in [19], 7.07 µM (≈ 17.9 µg/mL); in assay [20], 7.07 µM (≈ 17.9 µg/mL). The MIC in assay [21] was 3.16 µM (≈ 8.02 µg/mL); in [22] it was 3.16 µM (≈ 8.02 µg/mL); in assay [23] it was 1.79 µM (≈ 4.53 µg/mL); in assay [24], 1.13 µM (≈ 2.87 µg/mL); in assay [3], over 50 µM; in [25], 8.84 µM (≈ 22.4 µg/mL). Further, the MIC is at least 50 µM in assay [26] and 3.16 µM (≈ 8.02 µg/mL) in assay [27].
`CC(C)C[C@H](NC(=O)[C@H](CCCCN)NC(=O)[C@H](CCCN=C(N)N)NC(=O)[C@H](CCCN=C(N)N)NC(=O)[C@@H](N)CCCCN)C(=O)N[C@@H](C)C(=O)N[C@@H](Cc1ccccc1)C(=O)N[C@@H](CCCN=C(N)N)C(=O)N[C@@H](CC(C)C)C(=O)N[C@@H](Cc1ccccc1)C(=O)N[C@@H](CCCN=C(N)N)C(=O)N[C@@H](CC(C)C)C(=O)N[C@@H](Cc1ccccc1)C(=O)N[C@@H](CC(C)C)C(=O)N[C@@H](CCCCN)C(=O)N[C@@H](CC(C)C)C(=O)N[C@H](C(=O)N[C@@H](CC(C)C)C(=O)N[C@@H](CCCCN)C(=O)N[C@@H](CCCCN)C(N)=O)C(C)C` [KRRKLAFRLFRLFLKLVLKK]: the MIC in [28] came to 0.194 µM (≈ 0.5 µg/mL); in assay [29], 3.88 µM (≈ 10 µg/mL); in assay [30], 0.971 µM (≈ 2.5 µg/mL); in assay [31] it was 1.94 µM (≈ 5 µg/mL); in [32], 0.971 µM (≈ 2.5 µg/mL); in assay [33], 16 µM (≈ 41.2 µg/mL). The same molecule came in with an MIC in [34] of 0.0971 µM (≈ 0.25 µg/mL).
For the molecule `CC[C@H](C)[C@H](NC(=O)[C@H](CCCCN)NC(=O)[C@@H](N)Cc1c[nH]c2ccccc12)C(=O)N[C@H](C(=O)N[C@@H](Cc1ccccc1)C(=O)N[C@@H](Cc1c[nH]c2ccccc12)C(=O)N[C@@H](Cc1c[nH]c2ccccc12)C(=O)N[C@@H](CCCN=C(N)N)C(=O)N[C@@H](CCCN=C(N)N)C(N)=O)C(C)C` [WKIVFWWRR], the minimum inhibitory concentration (MIC) in [35] is 0.726 µM (≈ 0.999 µg/mL); in assay [36], 0.726 µM (≈ 0.999 µg/mL); in assay [37] it was 1.45 µM (≈ 2 µg/mL); in [38] it was 2.91 µM (≈ 4 µg/mL); in assay [3], 1.45 µM (≈ 2 µg/mL); in [39], 0.363 µM (≈ 0.5 µg/mL). The MIC in assay [40] worked out at 0.363 µM (≈ 0.5 µg/mL); in [41], 0.182 µM (≈ 0.25 µg/mL).

In general, MIC refers to the lowest concentration that inhibits growth of the organism.
